Values quoted from earlier work as cited in paper PMC12697872, “Rethinking the AI Paradigm for Solubility Prediction of Drug‑Like Compounds with Dual‐Perspective Modeling and Experimental Validation” (Advanced Science, 2025).

Settings: discarded ambiguous entries of DrugBank database; ref DrugBank database (version 5.1.12) 24; cited from earlier work

| SMILES | Experimental solubility (descriptive) |
| --- | --- |
| CCC(NC(C)C)C(O)c1ccc(O)c(O)c1 (centres unmarked) [79490-84-9] | Appreciable |

Same assay, conditions: experimental aqueous solubility as logS, sheet "DrugBank" of Supplement 2; ref DrugBank; cited from earlier work

| SMILES | ex_logS |
| --- | --- |
| CNCCCN1c2ccccc2CCc2ccccc21 [Desipramine] | -3.658 |
| CN1C(=O)OC(C)(C)C1=O [Trimethadione] | -0.4568 |
| OC(Cn1cncn1)(Cn1cncn1)c1ccc(F)cc1F [fluconazole] | -1.8 |
| O=C(O)[C@H]1O[C@@H](O)[C@H](O)[C@@H](O)[C@@H]1O [beta-D-glucuronic acid] | 0.3976 |
| CC(=O)CC(c1ccccc1)c1c(O)c2ccccc2oc1=O (centres unmarked) [warfarin] | -4.26 |
| N[C@@H](Cc1c[nH]cn1)C(=O)O [Histidine] | -0.5318 |
| COc1cc(C(=O)NCc2ccc(OCCN(C)C)cc2)cc(OC)c1OC [Trimethobenzamide] | -3.987 |
| CO[C@H]1/C=C/O[C@@]2(C)Oc3c(C)c(O)c4c(c3C2=O)C2=NC3(CCN(CC(C)C)CC3)NC2=C(NC(=O)/C(C)=C\C=C\[C@H](C)[C@H](O)[C@@H](C)[C@@H](O)[C@@H](C)[C@H](OC(C)=O)[C@@H]1C)C4=O [Rifabutin] | -3.649 |
| CC(O)(CS(=O)(=O)c1ccc(F)cc1)C(=O)Nc1ccc(C#N)c(C(F)(F)F)c1 (centres unmarked) [Bicalutamide] | -4.935 |
| CC(C)NCC1CCc2cc(CO)c([N+](=O)[O-])cc2N1 (centres unmarked) [Oxamniquine] | -2.532 |

Same assay, conditions: experimental aqueous solubility as logS, sheet "DrugBank"; ref DrugBank database; cited from earlier work

| SMILES | ex_logS |
| --- | --- |
| CC[C@H](C)[C@H](N)C(=O)O [Isoleucine] | -0.5813 |
| COc1cc(C)c(/C=C/C(C)=C/C=C/C(C)=C/C(=O)O)c(C)c1C [Acitretin] | -6.651 |
| NCC(CC(=O)O)c1ccc(Cl)cc1 (centres unmarked) [Baclofen] | -1.672 |
| N[C@@H](CS)C(=O)O [Cysteine] | 0.3591 |
| Cc1c(OCC(F)(F)F)ccnc1C[S+]([O-])c1nc2ccccc2[nH]1 (centres unmarked) [Lansoprazole] | -5.581 |
| CCCC(CCC)C(=O)O [Valproic acid] | -2.045 |
| C[C@@H](N)C(=O)O [D-Alanine] | 0.2676 |
| Cc1onc(-c2ccccc2)c1C(=O)N[C@@H]1C(=O)N2[C@@H]1SC(C)(C)[C@@H]2C(=O)O [Oxacillin] | -4.4606 |
| COc1ccc([C@@H]2CC(=O)c3c(O)cc(O)cc3O2)cc1O [Hesperetin] | -3.044 |
| Nc1ncn([C@H]2C[C@H](O)[C@@H](CO)O2)c(=O)n1 [Decitabine] | -1.317 |
| CC12CCC(CC1=O)C2(C)C (centres unmarked) [Camphor] | -1.978 |
| O=c1[nH]c2ccccc2n1C1CCN(CCCC(c2ccc(F)cc2)c2ccc(F)cc2)CC1 [Pimozide] | -4.664 |
| O=C(O)c1ccc2ccccc2n1 [Quinaldic Acid] | -1.092 |
| CCCCN1CCCCC1C(=O)Nc1c(C)cccc1C (centres unmarked) [Bupivacaine] | -3.22 |
| COc1cc(NS(=O)(=O)c2ccc(N)cc2)nc(OC)n1 [Sulfadimethoxine] | -2.957 |
| c1cnc2c(c1)ccc1cccnc12 [1,10-Phenanthroline] | -1.826 |
| N[C@@H](Cc1ccccc1)C(=O)O [Phenylalanine] | -0.7882 |
| CN[C@H](CC(C)C)C(=O)N[C@H]1C(=O)N[C@@H](CC(N)=O)C(=O)N[C@H]2C(=O)N[C@H]3C(=O)N[C@H](C(=O)N[C@H](C(=O)O)c4cc(O)cc(O)c4-c4cc3ccc4O)[C@H](O[C@H]3C[C@](C)(N)[C@@H](O)[C@H](C)O3)c3ccc(c(Cl)c3)Oc3cc2cc(c3O[C@@H]2O[C@H](CO)[C@@H](O)[C@H](O)[C@H]2O[C@H]2C[C@](C)(NCc3ccc(-c4ccc(Cl)cc4)cc3)[C@@H](O)[C@H](C)O2)Oc2ccc(cc2Cl)[C@H]1O [Oritavancin] | -2.2536 |
| Cc1c(OCC(F)(F)F)ccnc1C[S@@+]([O-])c1nc2ccccc2[nH]1 [Dexlansoprazole] | -3.245 |
| O=c1[nH]c(=O)n([C@H]2C[C@H](O)[C@@H](CO)O2)cc1F [Floxuridine] | -1.316 |
| C=CC(=O)N1CCN(c2nc(=O)n(-c3c(C)ccnc3C(C)C)c3nc(-c4c(O)cccc4F)c(F)cc23)[C@@H](C)C1 [Sotorasib] | -4.272 |
